The values that follow come from the Kinase Knowledgebase extract (Sharma et al. 2016).

“And” between values parts separate entries of the source, which are not always exact repeats. Equal values may be shown once.

For experiment [1], the target named is MAPK14 (human) (UniProt Q16539). Put plainly: Assessment of Phosphorylation of MAPK14 in HeLa Cell Line.
Experiment [2] has the same target. Put plainly: Inhibition of MAPK14 Kinase Activity.

Chain of MAPK14 (human) (Q16539 whole entry, looked up): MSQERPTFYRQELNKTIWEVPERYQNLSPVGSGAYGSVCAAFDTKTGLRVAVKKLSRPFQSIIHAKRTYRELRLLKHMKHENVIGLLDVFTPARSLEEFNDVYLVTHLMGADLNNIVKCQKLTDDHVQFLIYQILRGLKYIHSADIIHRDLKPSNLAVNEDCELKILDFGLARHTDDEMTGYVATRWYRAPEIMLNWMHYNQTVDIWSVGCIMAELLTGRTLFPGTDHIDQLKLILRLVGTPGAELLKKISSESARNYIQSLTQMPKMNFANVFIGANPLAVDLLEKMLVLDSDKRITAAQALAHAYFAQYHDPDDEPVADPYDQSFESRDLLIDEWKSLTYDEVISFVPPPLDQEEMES

On to `CCOC[C@H](C)Nc1nc2ccc(-c3nc(C4(CO)CC4)[nH]c3-c3ccc(F)cc3F)nc2o1`, for which the IC50 at MAPK14 (human) [1] and on MAPK14 (human) [2] was under 0.05 µM each time.

For the molecule `COCC[C@@H](C)Nc1nc2ccc(-c3nc(C(C)(C)CO)[nH]c3-c3ccc(F)cc3F)nc2o1`, the IC50 against MAPK14 (human) [1] and on MAPK14 (human) [2] was under 0.05 µM in each case.

Consider `COCC[C@H](C)Nc1nc2ccc(-c3nc(C(C)(C)CO)[nH]c3-c3ccc(F)cc3F)nc2o1`, for which the IC50 against MAPK14 (human) [1] is 0.0016 µM and < 0.05 µM; on MAPK14 (human) [2], under 0.05 µM.

As for `COCC[C@H](C)Nc1nc2ccc(-c3nc(C4(C)COC4)[nH]c3-c3ccc(F)cc3F)nc2o1`, the IC50 at MAPK14 (human) [1] and on MAPK14 (human) [2] was under 0.05 µM in each case.

As to `COCC[C@H](C)Nc1nc2ccc(-c3nc(C4CC4)[nH]c3-c3ccc(F)cc3F)nc2o1`, the IC50 against MAPK14 (human) [1] and against MAPK14 (human) [2] was under 0.05 µM in each case.
